Laboratory results published in patent US9127233B2, “Device and method for solubilizing, separating, removing and reacting carboxylic acids in oils, fats, aqueous or organic solutions by means of micro-or nanoemulsification” (priority 2010, dated 2015).
Like-named read-outs stand apart in the source and are kept apart here.

How the values were obtained:
[1] = Dynamic laser light scattering (DLS) of oleic acid micro-/nanoemulsions; format: physicochemical; details: for Mean Size by Intensity: DLS, emulsion with oleic acid; for Part: percentage of the peak in the sample
Procedure: (§1) The solutions were rested for 1 h and pH was measured. In case of incomplete dissolution and a pH below 7 a 1M NaOH solution was added dropwise until turbidity resolved. Then the mixtures were stirred or shaken. In order to assess the stability of the obtained micro or nanoemulsion, the solution were heated for 1 hour to 60° C. and cooled to room temperature. An other part of the clear solution was stored over night at 4° C. and then rewarmed to room temperature. Thereafter solutions were analysed for solid formation, residual oil, viscosity, turbidity, and DLS measurements were performed.
For DLS measurements a Zetasizer Nano S from Malvern (USA) was used. All measurements were repeated three times undiluted, or 1:10 and 1:100 diluted by water. For the measurements the viscosity of water and the refractory index of water were used.
Peak Maximum by Intensity: Size is directly determined from the measurement without a weighting of volume or particle number.
Peaks are presented corresponding to their percentage in the sample.
Ratio of peak maxima: Percentual distribution of particle sizes.

[2] = Estimation of the interaction between oleic acid and the test substance; format: physicochemical
Procedure: Several solubilizing compounds were tested in aqueous medium for their potential to solubilize a reference fatty acid, namely oleic acid.
(§2) In the following tests oleic acid was mixed with the test substances in H2O, Subsequently, log P and pH were measured and the solubility of the test substance in H2O was estimated together with an estimation of the interaction between oleic acid and the test substance according to the scheme shown below.
as §1
Estimation of the Interaction Between Oleic Acid and the Test Substance: • X=Interaction between oleic acid and the test substance • (X)=Interaction between oleic acid and test substance.

[3] = target: fatty acids bound to albumin (Homo sapiens, UniProt P02768); assay: Liberation of 3H-labeled oleic acid bound to albumin, extraction with n-hexane; details: identical procedure
Chain of fatty acids bound to albumin (P02768 25-609): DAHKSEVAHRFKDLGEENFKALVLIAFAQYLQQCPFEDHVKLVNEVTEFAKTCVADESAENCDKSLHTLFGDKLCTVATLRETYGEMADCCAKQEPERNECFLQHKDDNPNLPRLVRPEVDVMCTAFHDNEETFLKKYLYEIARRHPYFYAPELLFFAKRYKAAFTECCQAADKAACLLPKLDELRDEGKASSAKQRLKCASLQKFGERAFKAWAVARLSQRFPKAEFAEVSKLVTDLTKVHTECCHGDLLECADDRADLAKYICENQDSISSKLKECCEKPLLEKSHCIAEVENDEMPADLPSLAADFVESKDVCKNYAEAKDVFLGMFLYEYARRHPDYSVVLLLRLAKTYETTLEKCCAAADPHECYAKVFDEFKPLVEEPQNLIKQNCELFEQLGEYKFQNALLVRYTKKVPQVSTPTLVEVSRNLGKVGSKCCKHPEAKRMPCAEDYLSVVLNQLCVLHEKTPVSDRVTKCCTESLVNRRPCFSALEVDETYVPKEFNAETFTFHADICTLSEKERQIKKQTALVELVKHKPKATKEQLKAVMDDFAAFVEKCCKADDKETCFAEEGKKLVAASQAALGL
Source text: The capacity of arginine to liberate fatty acids bound to albumin was investigated by ^3H-labeled oleic acid.

[4] = physchem
Procedure: as §2

[5] = pH of aqueous solution of solubilizing compound mixed with oleic acid; format: physicochemical; details: solubilizing compound in water with 0.833 mol equivalents of oleic acid
Procedure: as §2
The solutions were rested for 1 h and pH was measured. In case of incomplete dissolution and a pH below 7 a 1M NaOH solution was added dropwise until turbidity resolved. Then the mixtures were stirred or shaken.

[6] = cited from earlier work
[7] = Estimation of solubility of the test substance in H2O; format: physicochemical
Procedure: as §2, §1
Estimation of Solubility: • X=Compound is completely dissolved • (X)=Compound is partially dissolved • ((X))=Compound is not dissolved (visual appearance) but there is a change in pH. Therefore it is assumed that at least a small part is dissolved. • −=insoluble

[8] = log P of the test substance; details: water (H2O), test substance mixed with oleic acid
Procedure: as §2

[9] = cited from earlier work; remark: listed apart in the source
[10] = n-octanol and water; cited from earlier work
[11] = Influence of the pH on the solubility of oleic acid in aqueous medium; format: physicochemical
Procedure: At the beginning the influence of the pH on the solubility of oleic acid in aqueous medium was tested. These tests were conducted in order to exclude the possibility that the observed solubility of oleic acid was due to pH changes and not primarily because of the interaction of functional groups.

Cl.N[C@@H](Cc1c[nH]cn1)C(=O)O.O [Histidine hydrochloride monohydrate]
Mean Size by Intensity [1]: 647 nm | Part [1]: 81.9% | Interaction with Oleic Acid [2]: X, E | reduction of residual fatty acids as compared to arginine [3]: significantly less | logP [4]: -4.37 | pH [5]: 9.30

N=C(N)NCCCC(N)C(=O)O [L-Arginine, 2-amino-5-guanidinopentanoic acid]
pKa ([6]; amino group): 8.99 | pKa ([6]; carboxyl group): 1.82 | logP [4]: -3.52

NC(=O)CC[C@H](N)C(=O)O [L-Glutamin, reference compound]
Interaction with Oleic Acid [2]: ((X)) | reduction of residual fatty acids as compared to arginine [3]: significantly less | Dissolved (H2O) [7]: (X) | logP [4]: -2.05 | pH [5]: 8.37

NCCCC[C@H](N)C(=O)O [L-Lysine]
Mean Size by Intensity [1]: 133 nm | Part [1]: 95.6% | Interaction with Oleic Acid [2]: X, E | reduction of residual fatty acids as compared to arginine [3]: significantly less | pH [5]: 9.56 | logP [8]: -3.42

NC(=O)C[C@H](N)C(=O)O [asparagine, reference compound]
reduction of residual fatty acids as compared to arginine [3]: significantly less

CO/C=C(/C(=O)OC)c1ccccc1Oc1cc(Oc2ccccc2C#N)ncn1 [azoxystrobin]
mg soluble in water [9]: 6.7 mg/L

[Co+2].c1ccc2c(c1)-c1nc-2nc2[n-]c(nc3nc(nc4[n-]c(n1)c1ccccc41)-c1ccccc1-3)c1ccccc21 [co-phthalocyanine]
mg soluble in water [9]: unsoluble

CCCCCCCC(=O)O [octanoic acid]
log KOW [10]: 3.05

CCCCCCCC/C=C\CCCCCCCC(=O)O [oleic acid, cis-9-octadecenoic acid]
solubility of oleic acid in aqueous medium ([11]; pH 14): formation of a solid precipitate | solubility of oleic acid in aqueous medium ([11]; pH range of 9-12 at room temperature): no interaction | solubility of oleic acid in aqueous medium ([11]; starting at pH 13): begins to dissolve

C1=Cc2nc1c(-c1ccccc1)c1nc(c(-c3ccccc3)c3ccc([nH]3)c(-c3ccccc3)c3ccc([nH]3)c2-c2ccccc2)C=C1 [tetraphenylporphyrin]
mg soluble in water [9]: 2 mg/L

sudan red
mg soluble in water [9]: unsoluble
